According to ChEMBL document CHEMBL1201862, “PubChem BioAssay data set” (2004):
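Briefly, cells in 96-well plates were exposed to five compound concentrations for 48 h, and endpoints were estimated by linear interpolation. At the GI50, growth is halved.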 Activity calls are given as the source filed them. Rule as the data show it: active = GI50 up to about 1.1 µM and inactive = higher.

How the values were obtained:
Assay in all cases: NCI anticancer screen, dose series, 48 h
CAKI-1 = system: CAKI-1
LOX IMVI = system: LOX IMVI
NCI-H460 = system: NCI-H460
KM12 = system: KM12
ACHN = system: ACHN
NCI-H23 = system: NCI-H23
NCI-H522 = system: NCI-H522
MDA-N = system: MDA-N
M14 = system: M14
UO-31 = system: UO-31
HOP-62 = system: HOP-62
SW-620 = system: SW-620
NCI/ADR-RES = system: NCI/ADR-RES
RPMI-8226 = system: RPMI-8226
DU-145 = system: DU-145
MOLT-4 = system: MOLT-4
SN12C = system: SN12C
786-0 = system: 786-0
SF-268 = system: SF-268
HT-29 = system: HT-29
UACC-257 = system: UACC-257
OVCAR-5 = system: OVCAR-5
Hs-578T = system: Hs-578T
CCRF-CEM = system: CCRF-CEM
A498 = system: A498
HL-60 = system: HL-60
EKVX = system: EKVX
PC-3 = system: PC-3
SR = system: SR
A549 = system: A549
SF-295 = system: SF-295
HCT-15 = system: HCT-15
MDA-MB-435 = system: MDA-MB-435
K562 = system: K562
RXF 393 = system: RXF 393
HOP-92 = system: HOP-92
OVCAR-4 = system: OVCAR-4
T47D = system: T47D
UACC-62 = system: UACC-62
MDA-MB-231 = system: MDA-MB-231
COLO 205 = system: COLO 205
OVCAR-8 = system: OVCAR-8
SK-OV-3 = system: SK-OV-3
SK-MEL-2 = system: SK-MEL-2
HCC 2998 = system: HCC 2998
MCF7 = system: MCF7
SNB-75 = system: SNB-75
BT-549 = system: BT-549
SNB-19 = system: SNB-19
OVCAR-3 = system: OVCAR-3
NCI-H226 = system: NCI-H226
IGROV-1 = system: IGROV-1
SK-MEL-28 = system: SK-MEL-28
TK-10 = system: TK-10
HCT-116 = system: HCT-116
U-251 = system: U-251
SK-MEL-5 = system: SK-MEL-5
Malme-3M = system: Malme-3M
SF-539 = system: SF-539

With `O=C1OC(c2ccccc2)=N/C1=C\c1cccc(F)c1` the GI50 (CAKI-1) was > 100 µM (inactive), the GI50 (LOX IMVI) was 22.2 µM (inactive) and the GI50 (NCI-H460) was 60.5 µM (inactive). The GI50 (KM12) was 33.5 µM (inactive), the GI50 (ACHN) was > 100 µM (inactive) and the GI50 (NCI-H23) was > 100 µM (inactive). The GI50 (NCI-H522) was 16 µM (inactive), the GI50 (MDA-N) was 56.6 µM (inactive) and the GI50 (M14) was 57.8 µM (inactive). For the same molecule, the GI50 (UO-31) was > 100 µM (inactive), the GI50 (HOP-62) was 38.6 µM (inactive) and the GI50 (SW-620) was > 100 µM (inactive). For the same molecule, the GI50 (NCI/ADR-RES) was 27.7 µM (inactive), the GI50 (RPMI-8226) was 19.7 µM (inactive) and the GI50 (DU-145) was > 100 µM (inactive). For the same molecule, the GI50 (MOLT-4) was 32.3 µM (inactive), the GI50 (SN12C) was > 100 µM (inactive) and the GI50 (786-0) was 51.9 µM (inactive). The GI50 (SF-268) was 34.5 µM (inactive), the GI50 (HT-29) was > 100 µM (inactive) and the GI50 (UACC-257) was 32.7 µM (inactive). For the same molecule, the GI50 (OVCAR-5) was > 100 µM (inactive), the GI50 (Hs-578T) was 36.3 µM (inactive) and the GI50 (CCRF-CEM) was 35.7 µM (inactive). For the same molecule, the GI50 (A498) was > 100 µM (inactive), the GI50 (HL-60) was 24.9 µM (inactive) and the GI50 (EKVX) was > 100 µM (inactive). The GI50 (PC-3) was > 100 µM (inactive), the GI50 (SR) was 22.9 µM (inactive) and the GI50 (A549) was > 100 µM (inactive). For the same molecule, the GI50 (SF-295) was 40.8 µM (inactive), the GI50 (HCT-15) was greater than 100 µM and the GI50 (MDA-MB-435) was 75 µM (inactive). For the same molecule, the GI50 (K562) was > 100 µM (inactive), the GI50 (RXF 393) was > 100 µM (inactive) and the GI50 (HOP-92) was > 100 µM (inactive). The GI50 (OVCAR-4) was 31.3 µM (inactive), the GI50 (T47D) was > 100 µM (inactive) and the GI50 (UACC-62) was > 100 µM (inactive). The GI50 (MDA-MB-231) was > 100 µM (inactive), the GI50 (COLO 205) was > 100 µM (inactive) and the GI50 (OVCAR-8) was 26.2 µM (inactive). For the same molecule, the GI50 (SK-OV-3) was > 100 µM (inactive), the GI50 (SK-MEL-2) was > 100 µM (inactive) and the GI50 (HCC 2998) was 72.3 µM (inactive). The GI50 (MCF7) was > 100 µM (inactive), the GI50 (SNB-75) was 64.3 µM (inactive) and the GI50 (BT-549) was 32.4 µM (inactive). The GI50 (SNB-19) was 55 µM (inactive), the GI50 (OVCAR-3) was 37 µM (inactive) and the GI50 (NCI-H226) was 25.9 µM (inactive). For the same molecule, the GI50 (IGROV-1) was 52.5 µM (inactive), the GI50 (SK-MEL-28) was 96.6 µM (inactive) and the GI50 (TK-10) was > 100 µM (inactive). The GI50 (HCT-116) was > 100 µM (inactive), the GI50 (U-251) was 38.1 µM (inactive) and the GI50 (SK-MEL-5) was 51.4 µM (inactive).
In the case of `CCc1c(Cc2cc(C)cc(C)c2)n2c(nc1=O)SCC2CBr` (configuration not stated), the GI50 (CAKI-1) is reported as > 50 µM (inactive), the GI50 (LOX IMVI) is reported as > 50 µM (inactive) and the GI50 (NCI-H460) is reported as > 50 µM (inactive). The GI50 (KM12) was > 50 µM (inactive), the GI50 (ACHN) was > 50 µM (inactive) and the GI50 (NCI-H23) was > 50 µM (inactive). The GI50 (NCI-H522) was 27.4 µM (inactive), the GI50 (MDA-N) was > 50 µM (inactive) and the GI50 (M14) was > 50 µM (inactive). The GI50 (UO-31) was > 50 µM (inactive), the GI50 (SW-620) was > 50 µM (inactive) and the GI50 (NCI/ADR-RES) was > 50 µM (inactive). For the same molecule, the GI50 (RPMI-8226) was > 50 µM (inactive), the GI50 (DU-145) was 23.1 µM (inactive) and the GI50 (MOLT-4) was 34 µM (inactive). The GI50 (SN12C) was > 50 µM (inactive), the GI50 (786-0) was > 50 µM (inactive) and the GI50 (SF-268) was > 50 µM (inactive). For the same molecule, the GI50 (HT-29) was > 50 µM (inactive), the GI50 (Malme-3M) was 12.9 µM (inactive) and the GI50 (UACC-257) was > 50 µM (inactive). The GI50 (OVCAR-5) was > 50 µM (inactive), the GI50 (Hs-578T) was > 50 µM (inactive) and the GI50 (CCRF-CEM) was 12.6 µM (inactive). For the same molecule, the GI50 (A498) was 28.7 µM (inactive), the GI50 (HL-60) was > 50 µM (inactive) and the GI50 (EKVX) was 27 µM (inactive). For the same molecule, the GI50 (PC-3) was > 50 µM (inactive), the GI50 (SR) was > 50 µM (inactive) and the GI50 (A549) was > 50 µM (inactive). The GI50 (HCT-15) was greater than 50 µM, the GI50 (MDA-MB-435) was > 50 µM (inactive) and the GI50 (K562) was > 50 µM (inactive). The GI50 (RXF 393) was > 50 µM (inactive), the GI50 (HOP-92) was 9.93 µM (inactive) and the GI50 (OVCAR-4) was 46.1 µM (inactive). For the same molecule, the GI50 (T47D) was 22.6 µM (inactive), the GI50 (UACC-62) was > 50 µM (inactive) and the GI50 (MDA-MB-231) was 19.6 µM (inactive). For the same molecule, the GI50 (COLO 205) was > 50 µM (inactive), the GI50 (OVCAR-8) was 10.4 µM (inactive) and the GI50 (SK-MEL-2) was 44.4 µM (inactive). The GI50 (HCC 2998) was > 50 µM (inactive), the GI50 (MCF7) was 29.4 µM (inactive) and the GI50 (SNB-75) was 15.5 µM (inactive). For the same molecule, the GI50 (BT-549) was > 50 µM (inactive), the GI50 (SNB-19) was 23.1 µM (inactive) and the GI50 (NCI-H226) was > 50 µM (inactive). For the same molecule, the GI50 (IGROV-1) was 24.2 µM (inactive), the GI50 (SF-539) was > 50 µM (inactive) and the GI50 (SK-MEL-28) was > 50 µM (inactive). The GI50 (TK-10) was 34 µM (inactive), the GI50 (HCT-116) was > 50 µM (inactive) and the GI50 (U-251) was 24.8 µM (inactive). The GI50 (SK-MEL-5) was > 50 µM (inactive).
